# Results: US7807877B2, “Genetic sequences having methyltransferase activity and uses therefor” (International Flower Developments Pty. Ltd., priority 2002, dated 2010)
# “And” between values parts separate entries of the source, which are not always exact repeats. Equal entries are not always repeated.
# Columns and labels:
# [1] = Reconstruction experiments: anthocyanins added to petal juice of Medeo roses; assay type: physicochemical, Rosa hybrida; details: pH 4.9
# Procedure: The rose cultivar Medeo generally produces cream-colored to pale apricot flowers (RHSCC 158C to 159A). […] The estimated vacuolar pH of Medeo petals is around 4.6. The petal juice of Medeo roses was extracted by grinding one petal with 50 μL of water using a mortar and pestle. The petal juice was collected and mixed with 10-20 μL of 1-2 mg/g delphinidin 3-glucoside, delphinidin 3,5-diglucoside and malvidin 3,5-diglucoside. The colors observed were described according to the Royal Horticultural Society Color Charts (RHSCC) (The Royal Horticultural Society, London) (Table 8).
# Petunia FMT (E20) [2] = test: HPLC assay of methyltransferase activity, E. coli extract containing pCGP3086; assay type: biochemical, Petunia hybrida
# Procedure: (§1) The assay reactions were incubated at 30° C. for 30 minutes. Fifty microlitres of a chloroform mix (CHCl3:methanol/1% HCl, 2:1) was added and the mixture was then vortexed to stop the reactions. The phases were separated by centrifugation at 13,000 rpm for 5 minutes and 50 μL of the upper phase was transferred into a clean tube and the contents subsequently hydrolysed by the addition of 12.5 μL of 10M HCl. The tube was then placed in a boiling waterbath for 30 minutes and the contents subsequently desiccated under vacuum. The residue was resuspended in 2-3 μL of methanol/1% HCl and spotted onto a TLC plate alongside standard samples of petunidin, malvidin and delphinidin. The anthocyanidins were separated in a Forestal system (HOAc:water:HCl; 30:10:3) (Markham, Techniques of flavonoid identification, Academic Press, London, 1982) and the TLC was exposed to an autoradiographic film (Kodak) for 16 hours at −70° C.
# (§2) Anthocyanidins in the reaction mixture were analysed by HPLC via gradient elution using gradient conditions of 50% B to 60% B over 10 minutes, then 60% B for 10 minutes and finally 60% B to 100% B over 5 minutes where solvent A consisted of TFA:H2O (5:995) and solvent B consisted of acetonitrile:TFA:H2O (500:5:495). An Asahi Pac ODP-50 cartridge column (250 mm×4.6 mm ID) was used for the reversed phase chromatographic separations. […].
# (§3) The enzyme activities of the peptides encoded by Petunia and Torenia FMT cDNA clones in pCGP3086 and pCGP3090, respectively were further assessed using the substrates delphinidin 3-glucoside and delphinidin 3-rutinoside and delphinidin 3,5-diglucoside under assay conditions as previously described (Table 15, Example 9) except that the ^14C-labelled SAM was replaced with non radioactive SAM at 2 mg/mL and the substrates (delphinidin 3-glucoside and delphinidin 3-rutinoside and delphinidin 3,5-diglucoside) at 2 mg/mL.
# Torenia FMT (TFMT) [3] = test: HPLC assay of methyltransferase activity, E. coli extract containing pCGP3090; assay type: biochemical, Torenia hybrida
# Procedure: as §1, §2, §3
# Torenia FMT (TFMT) [4] = test: Methyltransferase assay (14C-SAM, TLC) of crude homogenate of E. coli containing pCGP3090; assay type: biochemical, Torenia hybrida; design: key to Petunidin (product on TLC) / Malvidin (product on TLC): yes = detection of product on TLC; no = no reaction observed as determined by absence of product
# Procedure: as §1
# The confirmation of recombinant protein expression and preparation of crude protein extracts and subsequent determination of methyltransferase activity were as described for the analysis of the Petunia E20 cDNA clone (PFMT) (described above in Example 7).
# The enzyme activities of the protein encoded by the Torenia FMT cDNA clone in pCGP3090 along with that of the Petunia FMT (E20) clone in pCGP3086 were assessed using the substrates delphinidin 3-glucoside and delphinidin 3-rutinoside under assay conditions as described in Jonsson et al. (1983), supra and in Example 7 of this specification.
# Methyltransferase assays were set up according to Table 15 in a total reaction volume of 50 μL.
# Reaction conditions were as described previously (Example 7).
# Petunia FMT (E20) [5] = test: Methyltransferase assay (14C-SAM, TLC) of crude homogenate of E. coli containing pCGP3086; assay type: biochemical, Petunia hybrida; design: key to Petunidin (product on TLC) / Malvidin (product on TLC): yes = detection of product on TLC; no = no reaction observed as determined by absence of product
# Procedure: 10 mLs of LB containing ampicillin at 100 μg/mL and kanamycin at 25 μg/mL. (LB/Amp100+Kan25) were inoculated with a single colony of pCGP3086 or pQE30 in M15 (pREP4) cells. […] IPTG was then added to a final concentration of 1 mM and the culture was further incubated at 30° C. with shaking for 8 hours. The cells were pelleted by centrifugation at 3500 rpm for 10 minutes at 4° C. The pellet was resuspended in 1 mL of 0.1 M NaPi, pH 7.5, 4 mM MgCl2. […] The mixture was then sonicated for two bursts of 10 seconds at output 2-3 and then incubated on ice for 30 minutes. The cell debris was pelleted by centrifugation at 14,000 rpm for 20 minutes at 4° C. The supernatant was passed through a NAP-10 column (Pharmacia) and 1.5 mL of the sample collected in 0.1 M NaPi, pH 7.5, 4 mM MgCl2. […] (1983), supra. Methyltransferase assays were set up according to Table 10 in a total reaction volume of 50 μL. […] The assay reactions were incubated at 30° C. for 30 minutes. Fifty microlitres of a chloroform mix (CHCl3:methanol/1% HCl, 2:1) was added and the mixture was then vortexed to stop the reactions. […] The tube was then placed in a boiling waterbath for 30 minutes and the contents subsequently desiccated under vacuum.
# [6] = pCGP3086 (PFMT), percentage of total anthocyanidins, duplicate a/b
# [7] = pCGP3086, substrate 2 mg/mL, SAM 2 mg/mL, duplicate a/b
# [8] = pCGP3090 (TFMT), percentage of total anthocyanidins, duplicate a/b
# [9] = pCGP3090, substrate 2 mg/mL, SAM 2 mg/mL, duplicate a/b
# [10] = pCGP3090 crude homogenate + 14C-SAM (Table 16)
# [11] = pCGP3086 crude homogenate + 14C-SAM (Table 16, positive control)
# [12] = pCGP3086 crude homogenate + 14C-SAM, 30° C., 30 minutes (Table 11)
smiles,measurement,setting,value
"OC[C@H]1O[C@@H](Oc2cc3c(O)cc(O)cc3[o+]c2-c2cc(O)c(O)c(O)c2)[C@H](O)[C@@H](O)[C@@H]1O [D3G, delphinidin 3-glucoside]",COLOR,[1],red-purple
same,RHSCC#,[1],74A
same,product of flavonoid methyltransferase activity with the substrate,"Petunia FMT (E20) [2]; Petunia FMT (E20) in pCGP3086, to a lesser degree malvidin",predominantly petunidin
same,Predominant FMT Activity,Petunia FMT (E20) [2]; pCGP3086,3′FMT
same,% of anthocyanidin detected cya,Petunia FMT (E20) [2]; [6],11.8% and 9.7%
same,% of anthocyanidin detected del,Petunia FMT (E20) [2]; [6],35.5% and 31.4%
same,% of anthocyanidin detected mal,Petunia FMT (E20) [2]; [6],6.0% and 6.5%
same,% of anthocyanidin detected peo,Petunia FMT (E20) [2]; [6],2.7% and 3.0%
same,% of anthocyanidin detected pet,Petunia FMT (E20) [2]; [6],44.0% and 49.4%
same,Anthocyanidins (mg/g) Cya,Petunia FMT (E20) [2]; [7],2.4 mg/g and 2.0 mg/g
same,Anthocyanidins (mg/g) Del,Petunia FMT (E20) [2]; [7],7.1 mg/g and 6.4 mg/g
same,Anthocyanidins (mg/g) Mal,Petunia FMT (E20) [2]; [7],1.2 mg/g and 1.3 mg/g
same,Anthocyanidins (mg/g) Peo,Petunia FMT (E20) [2]; [7],0.5 mg/g and 0.6 mg/g
same,Anthocyanidins (mg/g) Pet,Petunia FMT (E20) [2]; [7],8.8 mg/g and 10.0 mg/g
same,product of flavonoid methyltransferase activity with the substrate,"Torenia FMT (TFMT) [3]; Torenia FMT in pCGP3090, to a lesser degree petunidin",predominantly malvidin
same,Predominant FMT Activity,Torenia FMT (TFMT) [3]; pCGP3090,3′5′FMT
same,% of anthocyanidin detected cya,Torenia FMT (TFMT) [3]; [8],4.5% and 3.6%
same,% of anthocyanidin detected del,Torenia FMT (TFMT) [3]; [8],7.8%
same,% of anthocyanidin detected mal,Torenia FMT (TFMT) [3]; [8],74.0% and 75.2%
same,% of anthocyanidin detected peo,Torenia FMT (TFMT) [3]; [8],8.5% and 8.0%
same,% of anthocyanidin detected pet,Torenia FMT (TFMT) [3]; [8],5.1% and 5.4%
same,Anthocyanidins (mg/g) Cya,Torenia FMT (TFMT) [3]; [9],1.0 mg/g and 0.9 mg/g
same,Anthocyanidins (mg/g) Del,Torenia FMT (TFMT) [3]; [9],1.8 mg/g and 1.9 mg/g
same,Anthocyanidins (mg/g) Mal,Torenia FMT (TFMT) [3]; [9],17.1 mg/g and 18.1 mg/g
same,Anthocyanidins (mg/g) Peo,Torenia FMT (TFMT) [3]; [9],2.0 mg/g and 1.9 mg/g
same,Anthocyanidins (mg/g) Pet,Torenia FMT (TFMT) [3]; [9],1.2 mg/g and 1.3 mg/g
same,"Petunidin and malvidin, the methylated derivatives of delphinidin, in assay reactions","Torenia FMT (TFMT) [4]; crude homogenates from pCGP3090 (containing TFMT), 14C-SAM",detected
same,Malvidin (product on TLC),Torenia FMT (TFMT) [4]; [10],yes
same,Petunidin (product on TLC),Torenia FMT (TFMT) [4]; [10],yes
same,"Petunidin and malvidin, the methylated derivatives of delphinidin, in assay reactions","Petunia FMT (E20) [5]; crude homogenates from pCGP3086 cells, 14C-SAM",detected
same,Malvidin (product on TLC),Petunia FMT (E20) [5]; [11],yes
same,Petunidin (product on TLC),Petunia FMT (E20) [5]; [11],yes
same,Malvidin (product on TLC),Petunia FMT (E20) [5]; [12],yes
same,Petunidin (product on TLC),Petunia FMT (E20) [5]; [12],yes
